Calls of active or inactive are those of the source.
Experiments:
[1] = THP-1 cell cytotoxicity, dose response, cytotoxicity control for non-replicating M. tuberculosis project (AID 489025); type: functional
[2] = viability loss in Vero cells – cytotoxicity control for Vif-APOBEC3G degradation inhibitor project, dose response (AID 1117358); type: functional; conditions: Vero
Protein skinhead-1 = target: T1, Protein skinhead-1 (Caenorhabditis elegans, UniProt P34707); type: functional
T1 sequence (P34707 whole entry): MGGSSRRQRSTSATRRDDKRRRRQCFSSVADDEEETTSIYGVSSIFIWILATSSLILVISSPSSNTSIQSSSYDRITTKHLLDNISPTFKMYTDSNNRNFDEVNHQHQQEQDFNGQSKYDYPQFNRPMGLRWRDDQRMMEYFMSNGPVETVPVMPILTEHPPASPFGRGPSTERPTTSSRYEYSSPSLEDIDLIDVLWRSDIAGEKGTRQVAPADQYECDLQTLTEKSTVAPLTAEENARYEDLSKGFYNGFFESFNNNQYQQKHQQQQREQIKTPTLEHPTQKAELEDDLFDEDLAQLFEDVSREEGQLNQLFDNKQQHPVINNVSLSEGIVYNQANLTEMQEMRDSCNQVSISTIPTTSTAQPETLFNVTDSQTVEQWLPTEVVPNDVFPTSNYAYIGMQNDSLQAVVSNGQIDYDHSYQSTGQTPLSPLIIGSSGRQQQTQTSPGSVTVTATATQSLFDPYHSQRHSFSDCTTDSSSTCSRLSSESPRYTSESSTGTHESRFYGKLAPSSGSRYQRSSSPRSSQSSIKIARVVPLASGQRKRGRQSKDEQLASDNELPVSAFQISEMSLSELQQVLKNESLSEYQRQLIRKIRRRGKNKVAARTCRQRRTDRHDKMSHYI

[3] = Vero E6 cell cytotoxicity, dose response, cytotoxicity control for non-replicating M. tuberculosis project, secondary assay (AID 492998); type: functional, VeroE6; conditions: Vero C1008
[4] = target: T2, Heat shock factor protein 1 (Mus musculus, UniProt P38532); test: decrease of HSF1-responsive luciferase luminescence – cell-based, NIH3T3, dose retest, confirmation (AID 2382); type: functional;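 further: NIH3T3 fibroblasts with HSF1-driven luciferase reporter stressed by proteasome inhibitor MG132; luminescence from HSF1-driven luciferase expression after 8 hours of MG132 stress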
T2 sequence (P38532 whole entry): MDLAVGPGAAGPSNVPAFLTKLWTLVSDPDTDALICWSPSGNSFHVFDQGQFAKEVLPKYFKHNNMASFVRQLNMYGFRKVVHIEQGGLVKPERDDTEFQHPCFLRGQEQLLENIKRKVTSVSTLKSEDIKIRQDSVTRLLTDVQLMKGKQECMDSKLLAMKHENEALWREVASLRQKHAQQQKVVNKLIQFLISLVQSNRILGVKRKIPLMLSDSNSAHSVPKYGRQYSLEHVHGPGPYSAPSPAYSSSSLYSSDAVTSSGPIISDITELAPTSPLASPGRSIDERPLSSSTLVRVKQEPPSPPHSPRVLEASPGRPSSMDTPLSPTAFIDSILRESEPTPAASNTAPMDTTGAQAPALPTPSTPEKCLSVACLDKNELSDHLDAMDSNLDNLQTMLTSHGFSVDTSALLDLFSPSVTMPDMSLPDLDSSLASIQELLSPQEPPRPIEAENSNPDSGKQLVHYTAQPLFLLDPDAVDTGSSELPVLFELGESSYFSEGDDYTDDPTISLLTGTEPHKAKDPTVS

[5] = target: G-protein coupled receptor 55 (Homo sapiens, UniProt Q9Y2T6); test: inhibition of LPI-stimulated GPR55 beta-arrestin translocation – imaging, U2OS, beta-arrestin-GFP, LPI agonist, primary screen (AID 2013); type: functional;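 further: antagonist potency measured as reduced agonist-driven arrestin aggregation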
[6] = target: G-protein coupled receptor 35 (Homo sapiens, UniProt Q9HC97); test: inhibition of zaprinast-stimulated GPR35 beta-arrestin translocation – imaging, U2OS, beta-arrestin-GFP, zaprinast agonist, primary screen (AID 2058); type: functional;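 further: antagonist potency meaning inhibition of agonist-induced arrestin redistribution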
[7] = target: Bifunctional protein GlmU (Mycobacterium tuberculosis, UniProt P9WMN3); test: Inhibitors of Mycobacterial Glucosamine-1-phosphate acetyl transferase (GlmU). Secondary screen.; set-up: species or system Mycobacterium tuberculosis H37Rv
[8] = target: T3, Aryl hydrocarbon receptor (Homo sapiens, UniProt P35869); test: Luminescence-based cell-based high throughput dose response assay for activators of the Aryl Hydrocarbon Receptor (AHR). [Related pubchem assays: 2796 (Primary screen (AHR activators in singlicate)), 2845 (Confirmation screen (AHR activators in triplicate)), 434939 (Counterscreen (PXR activators in triplicate)), 2804 (Summary (AHR activators))]; type: ADME
T3 sequence (P35869 whole entry): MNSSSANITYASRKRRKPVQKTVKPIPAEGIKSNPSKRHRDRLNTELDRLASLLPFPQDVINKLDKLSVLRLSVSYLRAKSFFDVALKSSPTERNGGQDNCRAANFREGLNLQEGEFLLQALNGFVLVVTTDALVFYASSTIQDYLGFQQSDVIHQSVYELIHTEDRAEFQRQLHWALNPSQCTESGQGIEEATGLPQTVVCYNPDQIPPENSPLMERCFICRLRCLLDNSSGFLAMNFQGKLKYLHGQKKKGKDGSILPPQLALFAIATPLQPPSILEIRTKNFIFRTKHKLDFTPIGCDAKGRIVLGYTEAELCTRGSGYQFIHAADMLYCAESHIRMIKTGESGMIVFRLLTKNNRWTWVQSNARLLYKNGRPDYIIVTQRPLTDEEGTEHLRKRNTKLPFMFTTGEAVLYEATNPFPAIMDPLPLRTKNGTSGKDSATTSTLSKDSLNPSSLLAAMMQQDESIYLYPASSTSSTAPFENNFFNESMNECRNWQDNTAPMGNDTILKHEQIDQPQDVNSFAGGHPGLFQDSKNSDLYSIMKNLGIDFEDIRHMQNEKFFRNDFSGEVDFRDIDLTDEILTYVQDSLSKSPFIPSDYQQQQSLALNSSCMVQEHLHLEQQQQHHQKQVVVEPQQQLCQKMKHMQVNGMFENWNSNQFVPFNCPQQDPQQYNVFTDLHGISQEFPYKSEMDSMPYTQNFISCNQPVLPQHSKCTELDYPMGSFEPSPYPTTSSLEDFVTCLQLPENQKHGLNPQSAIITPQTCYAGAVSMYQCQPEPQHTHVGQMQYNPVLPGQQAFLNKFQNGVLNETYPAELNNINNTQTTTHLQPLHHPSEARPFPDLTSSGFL

[9] = target: Protein-tyrosine kinase 2-beta (Homo sapiens, UniProt Q14289);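 further: potency of inhibitors of PYK2 kinase phosphorylation of poly-GT substrate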
Genome polyprotein = Genome polyprotein (dengue virus type 2, UniProt P29990); test: flavivirus cap methylation enzyme inhibition – biochemical, confirmation dose response, primary screen (AID 588689); type: functional
[10] = target: Glutathione-S-transferase (Schistosoma japonicum, UniProt Q26513); test: GST-antibody interaction or FRET quenching – biochemical, TR-FRET, artefact control for Vif-APOBEC3G degradation inhibitor project, dose response (AID 1117362); type: functional
Estrogen receptor = target: T4, Estrogen receptor (Homo sapiens, UniProt P03372);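 further: potency for inhibiting coactivator peptide recruitment to the receptor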
T4 sequence (P03372 whole entry): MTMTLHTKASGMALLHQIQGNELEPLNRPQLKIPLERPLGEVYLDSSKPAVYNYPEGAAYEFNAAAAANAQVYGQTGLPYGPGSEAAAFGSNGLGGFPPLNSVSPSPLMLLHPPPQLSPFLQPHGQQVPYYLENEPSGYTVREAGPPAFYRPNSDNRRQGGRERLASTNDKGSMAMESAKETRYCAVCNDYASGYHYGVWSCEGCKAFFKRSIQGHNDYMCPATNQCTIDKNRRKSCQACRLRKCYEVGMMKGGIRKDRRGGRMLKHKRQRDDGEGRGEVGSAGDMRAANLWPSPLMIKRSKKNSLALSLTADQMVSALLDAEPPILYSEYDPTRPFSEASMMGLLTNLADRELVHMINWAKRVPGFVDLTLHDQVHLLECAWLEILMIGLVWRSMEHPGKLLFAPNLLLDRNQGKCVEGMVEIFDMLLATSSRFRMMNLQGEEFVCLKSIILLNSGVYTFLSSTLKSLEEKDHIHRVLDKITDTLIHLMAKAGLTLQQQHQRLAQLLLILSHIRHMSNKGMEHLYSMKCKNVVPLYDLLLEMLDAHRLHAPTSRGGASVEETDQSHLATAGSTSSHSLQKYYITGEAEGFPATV

Estrogen receptor beta = Estrogen receptor beta (Homo sapiens, UniProt Q92731);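 further: recombinant ER-beta bound to coactivator SRC1 peptide in presence of estradiol agonist; inhibitors block coactivator peptide binding and lower the FRET signal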
Sequence of Estrogen receptor beta (Q92731 whole entry): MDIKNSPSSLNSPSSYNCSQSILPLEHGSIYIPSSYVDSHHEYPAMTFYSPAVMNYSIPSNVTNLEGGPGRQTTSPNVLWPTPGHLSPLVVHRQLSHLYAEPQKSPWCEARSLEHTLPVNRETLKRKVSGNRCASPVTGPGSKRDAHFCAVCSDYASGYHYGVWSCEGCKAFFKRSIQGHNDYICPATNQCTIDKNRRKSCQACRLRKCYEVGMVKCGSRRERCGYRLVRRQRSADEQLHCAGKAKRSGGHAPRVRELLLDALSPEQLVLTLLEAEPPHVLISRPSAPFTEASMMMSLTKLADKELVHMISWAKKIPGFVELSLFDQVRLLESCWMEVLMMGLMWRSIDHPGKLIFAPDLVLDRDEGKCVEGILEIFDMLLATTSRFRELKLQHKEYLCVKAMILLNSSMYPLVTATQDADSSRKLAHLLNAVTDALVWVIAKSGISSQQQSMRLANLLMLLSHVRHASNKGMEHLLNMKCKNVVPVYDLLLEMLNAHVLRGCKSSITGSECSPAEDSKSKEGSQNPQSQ

Sequence of G-protein coupled receptor 55 (Q9Y2T6 whole entry): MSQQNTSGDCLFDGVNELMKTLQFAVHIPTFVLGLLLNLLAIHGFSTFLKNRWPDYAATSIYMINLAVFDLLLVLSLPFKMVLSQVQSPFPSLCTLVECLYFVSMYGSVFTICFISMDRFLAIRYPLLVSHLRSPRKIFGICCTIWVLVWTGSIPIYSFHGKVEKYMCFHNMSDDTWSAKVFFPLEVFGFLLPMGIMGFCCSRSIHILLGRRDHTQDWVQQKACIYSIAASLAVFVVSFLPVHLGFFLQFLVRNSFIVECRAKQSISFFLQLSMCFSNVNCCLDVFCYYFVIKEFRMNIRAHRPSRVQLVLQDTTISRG
Sequence of Genome polyprotein (P29990 2492-3391 limits assumed): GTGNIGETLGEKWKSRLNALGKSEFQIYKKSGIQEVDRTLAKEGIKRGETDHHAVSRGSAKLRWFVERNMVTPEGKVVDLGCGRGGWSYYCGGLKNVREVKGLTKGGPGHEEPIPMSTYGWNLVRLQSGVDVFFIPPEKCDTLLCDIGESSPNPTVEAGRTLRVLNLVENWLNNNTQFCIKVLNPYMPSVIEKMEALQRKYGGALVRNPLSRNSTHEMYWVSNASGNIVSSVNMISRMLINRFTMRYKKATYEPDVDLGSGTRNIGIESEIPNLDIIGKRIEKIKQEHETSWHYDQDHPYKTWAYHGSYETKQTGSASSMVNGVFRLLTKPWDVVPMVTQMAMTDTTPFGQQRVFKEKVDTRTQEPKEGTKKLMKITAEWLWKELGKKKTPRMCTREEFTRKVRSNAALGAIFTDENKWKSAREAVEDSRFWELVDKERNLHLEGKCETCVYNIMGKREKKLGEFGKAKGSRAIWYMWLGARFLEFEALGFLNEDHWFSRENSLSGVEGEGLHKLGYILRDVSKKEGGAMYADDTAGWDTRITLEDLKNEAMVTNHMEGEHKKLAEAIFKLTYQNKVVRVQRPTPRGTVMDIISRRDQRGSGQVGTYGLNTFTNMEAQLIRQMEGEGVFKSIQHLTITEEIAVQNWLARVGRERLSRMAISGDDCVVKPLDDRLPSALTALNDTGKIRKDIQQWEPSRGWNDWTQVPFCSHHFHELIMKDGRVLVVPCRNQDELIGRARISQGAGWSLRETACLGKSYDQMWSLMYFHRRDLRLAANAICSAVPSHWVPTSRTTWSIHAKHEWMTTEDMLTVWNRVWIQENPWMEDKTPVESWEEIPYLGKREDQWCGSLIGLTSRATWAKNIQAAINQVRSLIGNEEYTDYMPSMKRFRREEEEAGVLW
Sequence of G-protein coupled receptor 35 (Q9HC97 whole entry): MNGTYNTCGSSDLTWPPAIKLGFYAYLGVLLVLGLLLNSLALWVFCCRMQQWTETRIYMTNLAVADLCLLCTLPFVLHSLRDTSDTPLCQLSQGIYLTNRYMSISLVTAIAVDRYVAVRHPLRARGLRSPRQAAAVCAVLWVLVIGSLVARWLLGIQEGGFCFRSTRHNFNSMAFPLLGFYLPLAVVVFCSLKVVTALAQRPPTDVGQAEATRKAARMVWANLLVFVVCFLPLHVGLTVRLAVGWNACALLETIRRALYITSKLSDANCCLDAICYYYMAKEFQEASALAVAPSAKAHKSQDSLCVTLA
Sequence of Protein-tyrosine kinase 2-beta (Q14289 whole entry): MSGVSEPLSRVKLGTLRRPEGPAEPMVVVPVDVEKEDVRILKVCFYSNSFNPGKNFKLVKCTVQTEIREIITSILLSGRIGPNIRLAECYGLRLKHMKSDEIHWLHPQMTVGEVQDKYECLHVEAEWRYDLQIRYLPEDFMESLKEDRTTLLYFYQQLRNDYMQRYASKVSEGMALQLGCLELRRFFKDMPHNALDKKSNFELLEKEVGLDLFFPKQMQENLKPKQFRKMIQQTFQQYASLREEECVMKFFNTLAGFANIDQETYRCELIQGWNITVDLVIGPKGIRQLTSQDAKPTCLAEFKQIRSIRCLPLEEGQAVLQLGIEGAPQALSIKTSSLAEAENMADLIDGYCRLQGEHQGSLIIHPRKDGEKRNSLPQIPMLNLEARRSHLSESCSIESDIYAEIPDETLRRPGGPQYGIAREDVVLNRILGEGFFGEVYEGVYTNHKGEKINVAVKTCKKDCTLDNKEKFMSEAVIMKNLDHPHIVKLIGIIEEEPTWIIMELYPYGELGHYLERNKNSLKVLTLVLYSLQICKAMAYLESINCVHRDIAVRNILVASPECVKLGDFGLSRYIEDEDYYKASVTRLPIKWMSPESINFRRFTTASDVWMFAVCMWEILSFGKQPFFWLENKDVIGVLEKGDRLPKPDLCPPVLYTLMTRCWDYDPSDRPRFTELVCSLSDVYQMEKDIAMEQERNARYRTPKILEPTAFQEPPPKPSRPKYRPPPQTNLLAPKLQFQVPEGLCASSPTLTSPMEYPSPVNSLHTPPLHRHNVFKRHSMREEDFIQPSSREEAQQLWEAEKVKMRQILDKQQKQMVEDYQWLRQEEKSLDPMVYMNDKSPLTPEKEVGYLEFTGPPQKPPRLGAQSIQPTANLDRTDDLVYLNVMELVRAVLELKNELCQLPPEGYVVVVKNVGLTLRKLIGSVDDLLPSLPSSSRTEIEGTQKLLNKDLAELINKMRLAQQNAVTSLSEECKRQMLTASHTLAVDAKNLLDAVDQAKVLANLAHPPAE
Sequence of Bifunctional protein GlmU (P9WMN3 whole entry): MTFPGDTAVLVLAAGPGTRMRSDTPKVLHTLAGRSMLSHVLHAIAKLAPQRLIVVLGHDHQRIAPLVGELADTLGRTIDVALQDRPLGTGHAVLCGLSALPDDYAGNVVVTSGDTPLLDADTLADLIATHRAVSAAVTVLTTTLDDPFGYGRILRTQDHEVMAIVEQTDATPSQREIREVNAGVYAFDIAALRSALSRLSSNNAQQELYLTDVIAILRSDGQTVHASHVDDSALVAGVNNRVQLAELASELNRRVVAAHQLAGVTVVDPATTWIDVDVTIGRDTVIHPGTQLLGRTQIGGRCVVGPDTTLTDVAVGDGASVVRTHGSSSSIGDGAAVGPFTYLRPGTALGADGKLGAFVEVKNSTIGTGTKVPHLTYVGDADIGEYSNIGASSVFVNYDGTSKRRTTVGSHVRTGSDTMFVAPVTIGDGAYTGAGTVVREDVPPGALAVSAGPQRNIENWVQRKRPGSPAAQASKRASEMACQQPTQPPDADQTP
Sequence of Glutathione-S-transferase (Q26513 whole entry): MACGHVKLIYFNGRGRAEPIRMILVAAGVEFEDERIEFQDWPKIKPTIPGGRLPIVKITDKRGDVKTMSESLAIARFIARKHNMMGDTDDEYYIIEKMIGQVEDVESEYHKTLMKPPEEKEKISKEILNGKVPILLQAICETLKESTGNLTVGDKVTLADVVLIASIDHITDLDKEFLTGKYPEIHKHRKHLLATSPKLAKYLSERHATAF

With CCN1C(C(=O)c2ccccc2)=C(O)c2ccccc2S1(=O)=O the CC50 [1] was 26.2 µM (active), the CC50 [2] was 24.3 µM (active) and the IC50 (Protein skinhead-1) was > 100 µM (inactive). The CC50 [3] was 19.2 µM (active) and the EC50 [4] was > 195 µM (not active).

With O=C1C=CC(=O)N1CCCCCCN1C(=O)C=CC1=O the IC50 [5] was 9.79 µM (active), the IC50 [6] was 6.23 µM (active) and the IC50 [7] was 118 µM (active).

With Cc1cnc(NC(=O)c2c(Cl)cnn2C)s1 the EC50 [8] was 5.87 µM (active).

For C=CCn1c(SCC(=O)N2CCCC2)nc2scc(-c3cccs3)c2c1=O, the IC50 [9] was > 69.5 µM (not active).

For O=C1CC=C2C3CC4N(CCC45c4cc(O)c(O)cc4N1C25)CC3=CCBr (centres undefined), the IC50 (Genome polyprotein) was 31.5 µM (active) and the IC50 [10] was 3.05 µM (active).

With Cc1ccc(S(=O)(=O)Cc2ccc(C(=O)N3CCC4(CC3)OCCO4)o2)cc1 the IC50 (Estrogen receptor) was 43 µM (not active) and the IC50 (Estrogen receptor beta) was 12.8 µM (active).

Source: ChEMBL document CHEMBL1201862, “PubChem BioAssay data set” (2004)
